# According to publication PMC6629785, “Synthesis and Pharmacological Evaluation of a Novel Peptide Based on Anemonia sulcata BDS-I Toxin as a New KV3.4 Inhibitor Exerting a Neuroprotective Effect Against Amyloid-β Peptide” (Frontiers in Chemistry, 2019):
# Target: T1, KV3.4 channels (Homo sapiens, UniProt Q03721)
# T1 construct: expressed in transfected cells; host or cells: CHO cells, transient transfection with Lipofectamine 2000; cDNAs provided by Professor Goldstein, University of Chicago
# T1 sequence (Q03721 1-635): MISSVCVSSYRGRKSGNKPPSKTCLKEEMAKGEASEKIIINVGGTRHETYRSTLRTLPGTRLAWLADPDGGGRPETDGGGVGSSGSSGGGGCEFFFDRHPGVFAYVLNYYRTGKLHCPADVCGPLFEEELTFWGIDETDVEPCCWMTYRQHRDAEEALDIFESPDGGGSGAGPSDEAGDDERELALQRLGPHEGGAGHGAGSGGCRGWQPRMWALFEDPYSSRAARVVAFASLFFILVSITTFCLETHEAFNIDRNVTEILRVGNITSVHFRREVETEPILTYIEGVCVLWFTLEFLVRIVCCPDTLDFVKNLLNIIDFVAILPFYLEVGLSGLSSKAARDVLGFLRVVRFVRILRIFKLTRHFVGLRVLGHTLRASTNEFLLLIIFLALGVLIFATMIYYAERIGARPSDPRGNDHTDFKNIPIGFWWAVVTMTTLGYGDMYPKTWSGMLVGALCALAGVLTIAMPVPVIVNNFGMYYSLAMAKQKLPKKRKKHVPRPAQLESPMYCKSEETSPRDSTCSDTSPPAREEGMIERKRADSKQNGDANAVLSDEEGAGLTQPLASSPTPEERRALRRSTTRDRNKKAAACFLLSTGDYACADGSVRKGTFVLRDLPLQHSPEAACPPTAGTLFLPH
# T1 sequence (Q9Y6H6 1-103 partner): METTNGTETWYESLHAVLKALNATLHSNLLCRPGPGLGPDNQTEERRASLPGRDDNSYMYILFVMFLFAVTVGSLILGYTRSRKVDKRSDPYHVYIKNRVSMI
# Assay: Whole-cell patch clamp of Kv3.4 currents in CHO cells transiently transfected with Kv3.4/MiRP2
# Type: cell-based
# Settings: peptide 100 nM, acute application; CHO cells transfected with Kv3.4/MiRP2; whole-cell patch clamp
# Procedure: KV3.4 and MiRP2 channel subunits were expressed in Chinese hamster ovary (CHO) cells by transient transfection. CHO cells were grown in 100 mm plastic Petri dishes in Dulbecco's Modified Eagle Medium containing 10% fetal bovine serum (FBS), non-essential amino acids (0.1 mm), penicillin (50 U/ml), and streptomycin (50 μg/ml) in a humidified atmosphere at 37°C with 5% CO2 (Miceli et al., [2015]). KV3.4 and MiRP2 cDNAs were kindly provided by the Professor Goldstein of the Department of Pediatrics and Institute for Molecular Pediatric Sciences, University of Chicago, USA. For electrophysiological experiments, cells were seeded on glass cover-slips (Glaswarenfabrik Karl Hecht KG, Sondheim, Germany) coated with poly-L-lysine (50 μg/mL) and transfected the next day with the appropriate cDNAs using Lipofectamine 2000 according to guidelines for transfection. We performed electrophysiological experiments 48 h after transfection.
# Currents from CHO cells were recorded at room temperature 1-2 days after transfection. The extracellular solution contained the following (in mM): 138 NaCl, 5.4 KCl, 2 CaCl2, 1 MgCl2, 10 glucose and 10 HEPES, adjusted pH 7.4 with NaOH. The pipette solution contained (in mM) the following: 140 KCl, 2 MgCl2, 10 EGTA, 10 HEPES, 5 Mg-ATP, adjusted pH 7.4 with KOH (Miceli et al., [2015]). KV3.4 currents were measured by applying voltage steps from −100 mV to +60 mV from a holding potential of −80 mV (Abbott et al., [2001]). Moreover, the total outward K^+ currents were recorded in NGF-differentiated PC-12 cells using the extracellular solution contained the following (in mM): 150 NaCl, 5.4 KCl, 3 CaCl2, 1 MgCl2, 10 HEPES, adjusted pH 7.4 with NaOH. The pipette solution contained the following (in mM): 140 KCl, 2 MgCl2, 10 HEPES, 10 glucose, 10 EGTA, and 1 Mg-ATP adjusted at pH 7.4 with KOH (Diochot et al., [1998]). All experiments were performed in the presence of 50 nM tetrodotoxin (TTX) and 10 μ M nimodipine in the extracellular solution. To discriminate K^+ current components appropriate electrophysiological protocols were used (Pannaccione et al., [2007]). Steady-state activation and inactivation properties were measured by using appropriate protocols (Pannaccione et al., [2005]). Capacitive currents were elicited by 5-mV depolarizing pulses from −80 mV and acquired at a sampling rate of 50 kHz. The capacitance of the membrane was calculated according to the following equation: Cm = τc·Io/ΔEm (1-I∞/Io), where Cm is membrane capacitance, τc is the time constant of the membrane capacitance, Io is the maximum capacitance current value, ΔEm is the amplitude of the voltage step, and I∞ is the amplitude of the steady-state current. K^+ currents were recorded by patch-clamp technique in CHO and NGF-differentiated PC-12 cells using a commercially available amplifier (Axopatch 200B, Molecular Devices) and Digidata 1322A interface (Molecular Devices, USA). The whole-cell configuration of the patch-clamp technique was adopted using glass micropipettes with a resistance of 2.5-5.0 MΩ. Data were acquired and analyzed using the pClamp software (version 9, Molecular Devices).
# For the acute treatment, each peptide has been added in the extracellular solution. For each cell, we first recorded K^+ currents as previously described, in the absence of peptides. After that, we switched from the extracellular solution without BDS-I peptides to the extracellular solution containing the BDS-I peptide. In these conditions, we recorded K^+ currents until the steady-state was reached. This protocol has been performed to test the effect on KV3.4 currents of each BDS-I fragment as well as of BDS-I[1-8scr].
# To identify the smallest BDS-I amino acid sequence able to block Kv3.4 activity, we evaluated the effect of the newly synthesized BDS-I fragments in CHO cells transiently transfected with Kv3.4/MiRP2, by patch clamp technique in whole cell configuration. […]
row,Substance,ability to inhibit Kv3.4 currents (in words)
1,"H-GDLWILRG-OH [BDS-I[13-20], overlapping 8-amino-acid fragment of BDS-I]",did not
2,"H-GYGYTSNA-OH [BDS-I[25-32], overlapping 8-amino-acid fragment of BDS-I]",did not
3,"H-NAYKWPNI-OH [BDS-I[31-38], overlapping 8-amino-acid fragment of BDS-I]",did not
4,"H-NIAAYPH-OH [BDS-I[37-43], C-terminal 7-amino-acid fragment of BDS-I]",did not
5,"H-RGTAPGGY-OH [BDS-I[19-26], overlapping 8-amino-acid fragment of BDS-I]",did not
6,"H-SGKPGRGD-OH [BDS-I[7-14], overlapping 8-amino-acid fragment of BDS-I]",did not
